# Experimental data as given in ChEMBL document CHEMBL1138908, “Design and structure-activity relationship of 3-benzimidazol-2-yl-1H-indazoles as inhibitors of receptor tyrosine kinases” (Bioorg Med Chem Lett, 2006).
# Key:
# HMEC = assay: Inhibition of VEGF-mediated proliferation of HMVEC; type: functional, cell-based; conditions: Homo sapiens
# [1] = biological target: Vascular endothelial growth factor receptor 1 (Homo sapiens, UniProt P17948); assay: Inhibition of VEGFR1
# [2] = biological target: Fibroblast growth factor receptor 1 (Homo sapiens, UniProt P11362); assay: Inhibition of FGFR1
# Fibroblast growth factor receptor 1, sequence (P11362 whole entry): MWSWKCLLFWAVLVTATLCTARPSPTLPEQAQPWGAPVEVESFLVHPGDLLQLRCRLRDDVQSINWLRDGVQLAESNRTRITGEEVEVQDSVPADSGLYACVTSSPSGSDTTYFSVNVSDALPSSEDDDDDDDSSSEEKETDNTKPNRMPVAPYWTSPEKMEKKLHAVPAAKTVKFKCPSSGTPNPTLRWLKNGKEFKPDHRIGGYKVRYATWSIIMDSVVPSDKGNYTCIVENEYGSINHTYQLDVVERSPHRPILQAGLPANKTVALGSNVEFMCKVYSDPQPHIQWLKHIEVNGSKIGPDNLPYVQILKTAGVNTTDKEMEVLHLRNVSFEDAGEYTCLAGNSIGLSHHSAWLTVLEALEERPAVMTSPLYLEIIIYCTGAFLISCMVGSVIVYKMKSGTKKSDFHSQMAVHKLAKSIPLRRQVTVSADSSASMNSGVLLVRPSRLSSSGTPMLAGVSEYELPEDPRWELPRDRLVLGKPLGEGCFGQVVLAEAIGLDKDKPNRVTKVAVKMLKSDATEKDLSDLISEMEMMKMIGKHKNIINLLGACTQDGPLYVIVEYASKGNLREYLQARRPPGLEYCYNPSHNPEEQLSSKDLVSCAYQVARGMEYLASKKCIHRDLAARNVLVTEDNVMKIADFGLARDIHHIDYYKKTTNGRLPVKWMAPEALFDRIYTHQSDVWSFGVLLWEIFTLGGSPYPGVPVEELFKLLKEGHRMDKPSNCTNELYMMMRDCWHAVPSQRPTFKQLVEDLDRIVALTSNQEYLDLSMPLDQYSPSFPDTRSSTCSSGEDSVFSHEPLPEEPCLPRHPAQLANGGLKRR
# [3] = biological target: Vascular endothelial growth factor receptor 2 (Mus musculus, UniProt P35918); assay: Inhibition of VEGFR2
# Vascular endothelial growth factor receptor 2, sequence (P35918 whole entry): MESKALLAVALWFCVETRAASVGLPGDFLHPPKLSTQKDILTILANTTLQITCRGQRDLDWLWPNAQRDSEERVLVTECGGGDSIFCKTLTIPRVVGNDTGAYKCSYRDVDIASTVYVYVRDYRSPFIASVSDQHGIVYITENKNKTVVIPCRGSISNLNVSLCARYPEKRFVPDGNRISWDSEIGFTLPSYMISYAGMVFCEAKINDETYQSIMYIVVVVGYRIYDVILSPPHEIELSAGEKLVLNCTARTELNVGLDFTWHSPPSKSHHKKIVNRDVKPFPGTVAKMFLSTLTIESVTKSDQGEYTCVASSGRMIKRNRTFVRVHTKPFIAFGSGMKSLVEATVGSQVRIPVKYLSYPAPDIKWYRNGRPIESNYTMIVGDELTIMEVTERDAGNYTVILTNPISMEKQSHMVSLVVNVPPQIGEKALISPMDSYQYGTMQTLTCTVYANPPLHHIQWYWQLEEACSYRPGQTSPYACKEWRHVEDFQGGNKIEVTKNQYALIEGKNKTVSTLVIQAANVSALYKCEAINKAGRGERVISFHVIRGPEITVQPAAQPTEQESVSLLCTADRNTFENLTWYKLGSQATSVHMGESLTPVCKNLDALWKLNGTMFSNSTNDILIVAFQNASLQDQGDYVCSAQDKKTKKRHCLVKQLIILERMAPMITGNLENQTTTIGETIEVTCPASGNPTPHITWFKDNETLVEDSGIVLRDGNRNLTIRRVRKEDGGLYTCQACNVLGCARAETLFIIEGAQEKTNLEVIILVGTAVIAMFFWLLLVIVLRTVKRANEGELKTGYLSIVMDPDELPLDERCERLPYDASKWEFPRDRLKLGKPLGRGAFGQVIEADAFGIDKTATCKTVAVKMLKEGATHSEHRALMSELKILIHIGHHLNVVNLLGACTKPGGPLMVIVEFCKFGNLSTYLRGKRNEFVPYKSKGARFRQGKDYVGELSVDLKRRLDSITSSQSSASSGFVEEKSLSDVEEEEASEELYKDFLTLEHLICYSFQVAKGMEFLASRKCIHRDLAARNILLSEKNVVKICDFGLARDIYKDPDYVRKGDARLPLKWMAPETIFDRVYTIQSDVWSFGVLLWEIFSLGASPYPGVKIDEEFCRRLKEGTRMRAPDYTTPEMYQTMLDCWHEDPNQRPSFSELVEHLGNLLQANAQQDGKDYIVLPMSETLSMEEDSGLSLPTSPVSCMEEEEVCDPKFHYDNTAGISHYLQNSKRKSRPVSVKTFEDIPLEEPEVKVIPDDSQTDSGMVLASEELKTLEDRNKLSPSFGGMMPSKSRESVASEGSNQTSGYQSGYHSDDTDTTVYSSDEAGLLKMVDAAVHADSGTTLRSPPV
# [4] = biological target: Platelet-derived growth factor receptor beta (Mus musculus, UniProt P05622); assay: Inhibition of PDGFRbeta
# Platelet-derived growth factor receptor beta, sequence (P05622 whole entry): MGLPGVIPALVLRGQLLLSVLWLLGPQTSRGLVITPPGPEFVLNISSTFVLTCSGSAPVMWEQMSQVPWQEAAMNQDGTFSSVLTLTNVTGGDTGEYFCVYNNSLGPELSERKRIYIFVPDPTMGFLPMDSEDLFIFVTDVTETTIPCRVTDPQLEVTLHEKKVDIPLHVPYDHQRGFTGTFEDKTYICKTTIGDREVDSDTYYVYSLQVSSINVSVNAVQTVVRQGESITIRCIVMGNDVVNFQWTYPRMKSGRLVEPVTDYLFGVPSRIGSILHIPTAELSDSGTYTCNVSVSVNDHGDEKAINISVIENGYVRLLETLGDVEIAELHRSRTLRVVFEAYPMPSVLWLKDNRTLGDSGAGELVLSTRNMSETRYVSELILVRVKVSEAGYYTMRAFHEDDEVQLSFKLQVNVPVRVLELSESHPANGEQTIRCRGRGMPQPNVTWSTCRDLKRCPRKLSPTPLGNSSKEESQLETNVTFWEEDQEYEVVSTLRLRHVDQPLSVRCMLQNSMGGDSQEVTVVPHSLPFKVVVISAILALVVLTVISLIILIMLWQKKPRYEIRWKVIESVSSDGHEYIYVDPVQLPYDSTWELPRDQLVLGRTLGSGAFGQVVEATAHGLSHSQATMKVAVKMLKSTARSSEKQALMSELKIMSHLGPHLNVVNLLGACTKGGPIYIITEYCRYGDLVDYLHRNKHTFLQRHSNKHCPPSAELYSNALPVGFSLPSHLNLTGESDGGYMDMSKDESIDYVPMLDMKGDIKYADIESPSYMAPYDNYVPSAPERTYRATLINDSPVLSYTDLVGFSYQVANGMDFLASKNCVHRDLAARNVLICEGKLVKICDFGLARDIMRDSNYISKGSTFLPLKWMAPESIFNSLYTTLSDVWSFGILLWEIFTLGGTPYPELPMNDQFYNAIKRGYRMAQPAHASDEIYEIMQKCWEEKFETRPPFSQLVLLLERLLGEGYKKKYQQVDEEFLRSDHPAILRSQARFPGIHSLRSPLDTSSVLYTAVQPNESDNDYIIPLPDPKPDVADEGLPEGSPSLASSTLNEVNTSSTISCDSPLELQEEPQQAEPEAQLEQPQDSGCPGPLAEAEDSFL
# Mus musculus = species on record: Mus musculus; assay: Area under curve in mouse; type: ADME, organism-based; conditions: in vivo
# KM12 [5] = assay: Antitumor activity against human KM12L4a cell line xenografted in nude mice at 100 mg/kg, after 14 days; type: functional; conditions: Mus musculus, KM12, 336 h, read-out: TGI
# [6] = Oral bioavailability in mouse; type: ADME, organism-based; conditions: in vivo
# [7] = Volume of distribution in mouse; type: ADME, organism-based; conditions: in vivo, read-out: Vdss
# [8] = Half life in mouse; type: ADME, organism-based; conditions: in vivo
# [9] = Clearance in mouse; type: ADME, organism-based; conditions: in vivo
# KM12 [10] = assay: Antitumor activity against human KM12L4a cell line xenografted in nude mice at 30 mg/kg, after 14 days; type: functional; conditions: Mus musculus, KM12, 336 h, read-out: TGI
# Vascular endothelial growth factor receptor 1, sequence (P17948 whole entry): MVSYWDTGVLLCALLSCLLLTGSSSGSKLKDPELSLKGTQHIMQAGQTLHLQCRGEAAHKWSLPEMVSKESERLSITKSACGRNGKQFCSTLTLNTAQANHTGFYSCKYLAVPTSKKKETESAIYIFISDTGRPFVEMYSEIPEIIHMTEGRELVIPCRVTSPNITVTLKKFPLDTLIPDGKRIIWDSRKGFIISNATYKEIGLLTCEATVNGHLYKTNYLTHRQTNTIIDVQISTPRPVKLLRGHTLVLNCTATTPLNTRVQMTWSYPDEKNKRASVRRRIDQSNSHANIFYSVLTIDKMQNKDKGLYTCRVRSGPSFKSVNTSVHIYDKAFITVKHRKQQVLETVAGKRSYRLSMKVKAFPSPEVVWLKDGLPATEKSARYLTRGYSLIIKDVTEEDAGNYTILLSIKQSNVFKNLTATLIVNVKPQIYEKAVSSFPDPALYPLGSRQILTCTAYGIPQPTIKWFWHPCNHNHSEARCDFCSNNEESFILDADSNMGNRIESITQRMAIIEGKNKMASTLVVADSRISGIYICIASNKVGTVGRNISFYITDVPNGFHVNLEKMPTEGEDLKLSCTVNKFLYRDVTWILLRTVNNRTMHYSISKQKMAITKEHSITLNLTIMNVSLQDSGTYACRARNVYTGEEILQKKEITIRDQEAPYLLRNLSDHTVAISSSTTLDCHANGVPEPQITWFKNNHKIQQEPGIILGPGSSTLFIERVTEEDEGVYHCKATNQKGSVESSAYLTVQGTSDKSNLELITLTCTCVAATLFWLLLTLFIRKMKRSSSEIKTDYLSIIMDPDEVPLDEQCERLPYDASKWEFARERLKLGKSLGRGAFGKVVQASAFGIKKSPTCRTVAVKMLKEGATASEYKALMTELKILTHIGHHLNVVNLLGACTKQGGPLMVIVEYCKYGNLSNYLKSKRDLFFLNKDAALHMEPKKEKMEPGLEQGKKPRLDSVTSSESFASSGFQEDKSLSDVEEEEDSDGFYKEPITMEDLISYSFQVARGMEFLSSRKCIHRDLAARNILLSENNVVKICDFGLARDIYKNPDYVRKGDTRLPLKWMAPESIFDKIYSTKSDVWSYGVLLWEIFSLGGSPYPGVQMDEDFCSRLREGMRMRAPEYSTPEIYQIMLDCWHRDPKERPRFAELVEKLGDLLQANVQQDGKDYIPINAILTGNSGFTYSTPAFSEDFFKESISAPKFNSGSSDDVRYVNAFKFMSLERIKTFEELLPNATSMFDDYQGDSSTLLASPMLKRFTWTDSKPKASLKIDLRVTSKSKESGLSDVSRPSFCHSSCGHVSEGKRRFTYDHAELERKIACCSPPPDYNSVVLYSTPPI
SMILES,EC50 (HMEC) [nM],IC50 [1] [nM],IC50 [2] [nM],IC50 [3] [nM],IC50 [4] [nM],AUC (Mus musculus) [ng·h/mL],inhibition in vivo at 100 mg/kg (KM12 [5]) [%],bioavailability [6] [%],Vd [7] [L/kg],half-life [8] [h],clearance [9] [mL/min/kg],inhibition in vivo at 30 mg/kg (KM12 [10]) [%]
c1ccc2c(-c3nc4ccc(N5CCOCC5)cc4[nH]3)n[nH]c2c1,160,50,100,160,260,–,–,–,–,–,–,–
c1ccc2c(-c3nc4c(N5CCOCC5)cccc4[nH]3)n[nH]c2c1,> 10000,> 3000,830,> 3000,> 3000,–,–,–,–,–,–,–
c1ccc(COc2ccc3[nH]nc(-c4nc5ccc(N6CCC(N7CCCCC7)CC6)cc5[nH]4)c3c2)cc1,190,3,8,30,83,–,–,–,–,–,–,–
CC(C)(C)NC(=O)Nc1cccc2[nH]nc(-c3nc4cc(N5CCC(N6CCCCC6)CC5)ccc4[nH]3)c12,240,4,3,70,440,–,–,–,–,–,–,–
c1ccc2c(-c3nc4cc(-n5ccnc5)ccc4[nH]3)n[nH]c2c1,7000,96,210,83,1400,–,–,–,–,–,–,–
CN1CCN(Cc2ccc3[nH]c(-c4[nH]nc5ccccc45)nc3c2)CC1,300,170,270,260,1900,–,–,–,–,–,–,–
c1cc2[nH]nc(-c3nc4ccc(N5CCC(N6CCCCC6)CC5)cc4[nH]3)c2cc1NCC1CCCCC1,220,21,16,44,1700,–,–,–,–,–,–,–
CN1CCN(c2ccc3[nH]c(-c4[nH]nc5ccccc45)nc3c2)CC1,97,44,82,130,170,–,–,–,–,–,–,–
CN1CCC(N(C)c2ccc3nc(-c4n[nH]c5ccccc45)[nH]c3c2)CC1,220,8,18,150,500,–,–,–,–,–,–,–
c1ccc2c(-c3nc4cc(OCCCN5CCCC5)ccc4[nH]3)[nH]nc2c1,270,48,98,170,440,–,–,–,–,–,–,–
c1ccc(COc2cccc3c(-c4nc5cc(N6CCC(N7CCCCC7)CC6)ccc5[nH]4)[nH]nc23)cc1,1800,> 3000,> 3000,> 3000,> 3000,–,–,–,–,–,–,–
FC(F)(F)c1ccc2c(-c3nc4ccc(N5CCC(N6CCCCC6)CC5)cc4[nH]3)n[nH]c2c1,4,–,–,52,62,–,–,–,–,–,–,–
Nc1c(-c2nc3ccccc3[nH]2)c(=O)[nH]c2ccccc12,78,–,–,–,–,–,–,–,–,–,–,–
c1ccc(COc2ccc3c(-c4nc5ccc(N6CCC(N7CCCCC7)CC6)cc5[nH]4)n[nH]c3c2)cc1,220,11,23,21,180,–,–,–,–,–,–,–
c1ccc(COc2cccc3[nH]nc(-c4nc5cc(N6CCC(N7CCCCC7)CC6)ccc5[nH]4)c23)cc1,460,63,94,660,1800,–,–,–,–,–,–,–
Fc1cccc2c(-c3nc4ccc(N5CCC(N6CCCCC6)CC5)cc4[nH]3)n[nH]c12,1400,150,200,330,2300,–,–,–,–,–,–,–
CC(C)(C)NC(=O)Nc1ccc2[nH]nc(-c3nc4ccc(N5CCC(N6CCCCC6)CC5)cc4[nH]3)c2c1,350,–,–,5,81,–,–,–,–,–,–,–
CC(C)(C)NC(=O)Nc1cccc2c(-c3nc4cc(N5CCC(N6CCCCC6)CC5)ccc4[nH]3)[nH]nc12,–,> 3000,> 3000,> 3000,> 3000,–,–,–,–,–,–,–
c1ccc2c(-c3nc4ccc(N5CCC(N6CCCCC6)CC5)cc4[nH]3)n[nH]c2c1,97,28,48,78,690,–,–,–,–,–,–,–
COC(=O)c1ccc2[nH]nc(-c3nc4ccc(N5CCC(N6CCCCC6)CC5)cc4[nH]3)c2c1,130,15,73,31,63,–,–,–,–,–,–,–
Fc1ccc2c(-c3nc4cc(N5CCC(N6CCCCC6)CC5)ccc4[nH]3)[nH]nc2c1,33,10,28,28,310,2830,88,62,24.8,4.22,71,50
c1ccc2[nH]c(-c3n[nH]c4ccccc34)nc2c1,5900,720,1400,3300,3400,–,–,–,–,–,–,–
c1ccc(Oc2ccc3n[nH]c(-c4nc5cc(N6CCC(N7CCCCC7)CC6)ccc5[nH]4)c3c2)cc1,80,28,15,44,8,–,–,–,–,–,–,–
